Data reported in patent US5888993A, “Vanadium compounds in the treatment of elevated blood sugar levels” (The University of British Columbia, priority 1997, dated 1999).
Several values for one entry are separate records, joined by “and”; a condition that tells them apart may be missing. Identical values can stand only once.

Key:
SHR rats = assay: Blood pressure reduction by BMOV, spontaneously hypertensive rats; format: in vivo, rat; details: SHRO, 0.75 mg/ml in drinking water
Experimental: (§1) 11 SHR and 12 WKY rats (all male) were procured at 4 weeks of age from Charles River, Canada. The animals were divided into four experimental groups: SHR (untreated n=5), SHRO (BMOV treated n=6), WKY (untreated n=8) and WKYO (BMOV treated n=4). Chronic BMOV treatment was commenced on the SHRO and WKYO groups at 5 weeks of age. The rats were given BMOV (0.75 mg/ml) ad libitum in the drinking water.
(§2) Once at week 5 and then starting at week 8, weekly measurements of blood pressure were done on all groups for the next 3 weeks. Blood samples were also collected via the tail vein during the weeks mentioned above. These were centrifuged and plasma was collected for subsequent glucose and insulin analyses. Chronic blood pressure measurements were done on conscious rats, using the tail cuff method without external preheating. Initial experiments to validate the tail cuff method by comparing the readings obtained with it to those obtained by direct arterial cannulation were conducted.

WKY rats = assay: Blood pressure study with BMOV, Wistar Kyoto rats; format: in vivo, rat; details: WKYO, 0.75 mg/ml in drinking water
Experimental: as §1, §2

non diabetic rats = assay: Previous laboratory studies of BMOV in non diabetic rats; format: in vivo, rat; details: 0.75 mg/ml
Experimental: as §1

diabetic rats [1] = assay: Comparison of BMOV and vanadyl kojate, acute time course of plasma glucose, rats made diabetic with STZ; format: in vivo, rat; parameters: plasma glucose level: unit not given here
Experimental: Using BMOV and Vanadyl Kojate as prepared in Examples 1 and 2 above, the relative efficacy of the two compounds was assessed using rats made diabetic with STZ. Again the animals were divided into responder and non-responder groups. For a 0.063 mmol V/kg ip injection, BMOV gave a 50:50 split between responder and non-responder groups whereas for vanadyl kojate the ratio was 60:40. On oral gavage of 0.55 mmol V/kg the responder:non-responder ratios were 50:50 and 57:43 respectively (n=10). However over a 12 day test period, there was a 100% response in terms of blood glucose reduction for diabetic rats receiving vanadyl kojate orally.

diabetic rats [2] = assay: Comparative testing, plasma glucose after oral gavage in STZ diabetic rats; format: in vivo, male wistar rats; details: oral gavage 1 mmol/kg
Experimental: Diabetes was induced in all animals by a single intravenous injection of streptozotocin (STZ) 60 mg/kg in 0.9% NaCl via the tail vein. Three days after STZ injection, blood was collected from the tail by nicking the tail tip and expressing the blood into heparinized capillary tubes. Blood was centrifuged at 20,000 g for 10 minutes to separate the plasma. Glucose analysis was done immediately on the plasma sample using a Boehringer Mannheim kit. […] One week after STZ injection animals were randomly divided into 3 pairs of rats. Each pair of rats received by oral gavage 1 mmol/kg of BMOV or VO(Sal)2 or VO(acac)2, suspended in 3% acacia.

diabetic rats [3] = assay: Prolonged administration in drinking water (77 days), STZ diabetic rats; format: in vivo, rat
Experimental: BMOV was administered to normal and diabetic rats in drinking water.
The study was composed of 4 groups of animals Control (8 animals), Control-Treated (11 animals), Diabetic (11 animals) and Diabetic-Treated (12 animals). The diabetic state was induced by injecting STZ at 60 mg/kg dissolved in 0.9% NaCl I.V. via the tail vein to anaesthetized rats. The two control groups were injected with 0.9% NaCl I.V. through the tail vein. The diabetic state was determined with a "Testape"™ test at 3 days post-injection and later confirmed with a glucometer test. Blood glucose and insulin assays were carried out post-injection over the course of the study. Treatment according to the invention was started 1 week after determination of the diabetic state.
Treated diabetic animals received between 0.3 and 0.5 mmol/kg of the compound/day in drinking water over a 77 day period. Treated control animals received a slightly lower dose (0.2-0.3 mmol/day) over the same period. The concentration of BMOV in the drinking water was varied between 1.6 and 3.2 mM. The reason for the differing doses in the two sets of animals is that the two groups drank different amounts of water daily; it was difficult to attain the same dose in both groups.
1. As indicated above, 4 groups of animals were studied, but the diabetic-treated group was sub-divided to diabetic-treated responders (8 animals) and diabetic-treated non-responders (4 animals). Curve 1 is the control group, curve 2 the control-treated group, curve 3 the diabetic group, curve 4 is the diabetic-treated responders and curve 5 is the diabetic-treated non-responders. […] Treatment began with a […] solution of the compound. […] On day 24, the concentration was increased to 2.37 mM (0.7 mg/ml).

diabetic rats [4] = assay: BMOV in drinking water, STZ diabetic rats; format: in vivo, rat
[5] = diabetic-treated non-responders, pretreatment, mean ± S.E.M.
[6] = diabetic-treated non-responders, week 6, mean ± S.E.M.
[7] = diabetic-treated responders, pretreatment, mean ± S.E.M.
[8] = diabetic-treated responders, week 6, mean ± S.E.M.

## Cc1occc(=O)c1[O-].Cc1occc(=O)c1[O-].[O]=[V+2] [BMOV, Bis(maltolato)oxovanadium(IV)]
SHR rats
  development of high blood pressure, in words: prevent the development of high blood pressure
SHR rats; tail cuff
  decrease in systolic blood pressure: 25-30 mmHg
WKY rats
  systolic blood pressure, normotensive controls: without having any effect
Non diabetic rats
  plasma insulin levels: sufficient to lower plasma insulin levels
Diabetic rats [1]; i.p. 0.063 mmol/kg, nonresponders (DTN), 0 h
  plasma glucose level: 19.42
Diabetic rats [1]; i.p. 0.063 mmol/kg, nonresponders (DTN), 1 h
  plasma glucose level: 18.82
Diabetic rats [1]; i.p. 0.063 mmol/kg, nonresponders (DTN), 2 h
  plasma glucose level: 18.51
Diabetic rats [1]; i.p. 0.063 mmol/kg, nonresponders (DTN), 4 h
  plasma glucose level: 17.94
Diabetic rats [1]; i.p. 0.063 mmol/kg, nonresponders (DTN), 6 h
  plasma glucose level: 18.08
Diabetic rats [1]; i.p. 0.063 mmol/kg, nonresponders (DTN), 8 h
  plasma glucose level: 17.77
Diabetic rats [1]; i.p. 0.063 mmol/kg, nonresponders (DTN), 12 h
  plasma glucose level: 19.07
Diabetic rats [1]; i.p. 0.063 mmol/kg, nonresponders (DTN), 24 h
  plasma glucose level: 19.01
Diabetic rats [1]; i.p. 0.063 mmol/kg, responders (DTR), 0 h
  plasma glucose level: 17.51
Diabetic rats [1]; i.p. 0.063 mmol/kg, responders (DTR), 1 h
  plasma glucose level: 14.77
Diabetic rats [1]; i.p. 0.063 mmol/kg, responders (DTR), 2 h
  plasma glucose level: 12.65
Diabetic rats [1]; i.p. 0.063 mmol/kg, responders (DTR), 4 h
  plasma glucose level: 10.6
Diabetic rats [1]; i.p. 0.063 mmol/kg, responders (DTR), 6 h
  plasma glucose level: 10.28
Diabetic rats [1]; i.p. 0.063 mmol/kg, responders (DTR), 8 h
  plasma glucose level: 9.08
Diabetic rats [1]; i.p. 0.063 mmol/kg, responders (DTR), 12 h
  plasma glucose level: 9.38
Diabetic rats [1]; i.p. 0.063 mmol/kg, responders (DTR), 24 h
  plasma glucose level: 7.15
Diabetic rats [1]; oral gavage 0.55 mmol/kg, nonresponders (DTN), 0 h
  plasma glucose level: 19.31
Diabetic rats [1]; oral gavage 0.55 mmol/kg, nonresponders (DTN), 1 h
  plasma glucose level: 18.05
Diabetic rats [1]; oral gavage 0.55 mmol/kg, nonresponders (DTN), 2 h
  plasma glucose level: 17.57
Diabetic rats [1]; oral gavage 0.55 mmol/kg, nonresponders (DTN), 4 h
  plasma glucose level: 16.92
Diabetic rats [1]; oral gavage 0.55 mmol/kg, nonresponders (DTN), 6 h
  plasma glucose level: 16.43
Diabetic rats [1]; oral gavage 0.55 mmol/kg, nonresponders (DTN), 8 h
  plasma glucose level: 15.02
Diabetic rats [1]; oral gavage 0.55 mmol/kg, nonresponders (DTN), 12 h
  plasma glucose level: 17.17
Diabetic rats [1]; oral gavage 0.55 mmol/kg, nonresponders (DTN), 24 h
  plasma glucose level: 18.07
Diabetic rats [1]; oral gavage 0.55 mmol/kg, responders (DTR), 0 h
  plasma glucose level: 18.09
Diabetic rats [1]; oral gavage 0.55 mmol/kg, responders (DTR), 1 h
  plasma glucose level: 14.55
Diabetic rats [1]; oral gavage 0.55 mmol/kg, responders (DTR), 2 h
  plasma glucose level: 13.13
Diabetic rats [1]; oral gavage 0.55 mmol/kg, responders (DTR), 4 h
  plasma glucose level: 11.68
Diabetic rats [1]; oral gavage 0.55 mmol/kg, responders (DTR), 6 h
  plasma glucose level: 9.47
Diabetic rats [1]; oral gavage 0.55 mmol/kg, responders (DTR), 8 h
  plasma glucose level: 9.27
Diabetic rats [1]; oral gavage 0.55 mmol/kg, responders (DTR), 12 h
  plasma glucose level: 7.01
Diabetic rats [1]; oral gavage 0.55 mmol/kg, responders (DTR), 24 h
  plasma glucose level: 6.31
Diabetic rats [2]
  blood glucose reducing effect vs compounds of Comparative Examples 15 and 16: superior
Diabetic rats [2]; 0 h, individual rats (two per drug)
  plasma glucose level: 23.02 mM and 23.01 mM
Diabetic rats [2]; 2 h, individual rats
  plasma glucose level: 23.87 mM and 23.15 mM
Diabetic rats [2]; 4 h, individual rats
  plasma glucose level: 22.27 mM and 23.32 mM
Diabetic rats [2]; 6 h, individual rats
  plasma glucose level: 21.21 mM and 22.09 mM
Diabetic rats [2]; 8 h, individual rats
  plasma glucose level: 20.26 mM and 19.45 mM
Diabetic rats [2]; 12 h, individual rats
  plasma glucose level: 9.97 mM and 8.73 mM
Diabetic rats [2]; 24 h, individual rats
  plasma glucose level: 0.8 mM and 1.0 mM
Diabetic rats [3]; both diabetic-treated groups, by day 7
  weight, diabetic-treated groups vs all other groups: significant difference
Diabetic rats [3]; diabetic animals
  plasma triglyceride and cholesterol, in words: restored to control values
Diabetic rats [3]; diabetic treated (diabetic about 275 ml/rat)
  fluid intake: about 60 ml/rat
Diabetic rats [3]; diabetic-treated (from greater than 50 grams per day)
  food intake: about 30 grams per day
Diabetic rats [3]; diabetic-treated non-responders, by day 28
  weight, non-responders vs other 4 groups: significantly different from the other 4 groups
Diabetic rats [3]; [5]
  Cholesterol: 1.51 ± 0.07 mmol/L
  Triglyceride: 1.85 ± 0.41 mmol/L
Diabetic rats [3]; [6]
  Cholesterol: 1.48 ± 0.09 mmol/L
  Triglyceride: 2.31 ± 0.19 mmol/L
Diabetic rats [3]; diabetic-treated responders, before day 18, treatment withheld
  hypoglycemia: developed in several animals
Diabetic rats [3]; diabetic-treated responders, by day 14
  blood glucose, in words: euglycemic
Diabetic rats [3]; diabetic-treated responders, by day 28
  weight, responders vs diabetic group: no longer a significant difference
Diabetic rats [3]; [7]
  Cholesterol: 1.67 ± 0.10 mmol/L
  Triglyceride: 1.10 ± 0.09 mmol/L
Diabetic rats [3]; [8]
  Cholesterol: 1.58 ± 0.11 mmol/L
  Triglyceride: 1.70 ± 0.18 mmol/L
Diabetic rats [3]; diabetic-treated, 77 days, drinking water
  weight gain: 140 g
Diabetic rats [3]; diabetic-treated, at any time
  food consumption vs control, in words: no significant difference
Diabetic rats [3]; diabetic-treated, day 28 of BMOV study
  Insulin values: 22.0 ± 1.6 μU/ml
Diabetic rats [3]; diabetic-treated, day 77
  food intake: 28±1.6 grams per day
Diabetic rats [3]; diabetic-treated, drinking water
  animals responding (blood glucose lowered): 8 out of the 12 and eight of the twelve
Diabetic rats [3]; diabetic-treated, throughout
  fluid consumption vs control, in words: no significant difference
Diabetic rats [3]; non-responders (four of the twelve rats), on any given day
  blood glucose: 6 to 30 mM
Diabetic rats [3]; responders, by day 24
  blood glucose, in words: normal blood glucose
Diabetic rats [3]; responders, from day 7 onwards (from 20 mM)
  blood glucose: less than 10 mM
Diabetic rats [3]; treated animals not controlled by the drug, end of 77 days
  cataracts: One of the four
Diabetic rats [3]; treated diabetic rats controlled by the drug, end of 77 days (untreated diabetic 5/11)
  cataracts: 0/8
Diabetic rats [4]; 0.46-0.92 mmol/kg
  fluid intake: decreased to normal
Diabetic rats [4]; 0.46-0.92 mmol/kg (150-300 mg/kg), four diabetic rats
  blood glucose reduction: reduced blood glucose in four diabetic rats into the normal range
